According to US20230146870A1, “METHOD TO QUANTIFY AFFINITY AND SELECTIVITY OF SMALL MOLECULES FOR PROTEINS IN LIVING CELLS” (Ohio State Innovation Foundation, priority 2021, published 2023):

Legend:
[1] = target: PKCε (Homo sapiens, UniProt Q02156); conditions: radiolabeled PDBu at 4° C.; read-out: Biochemical Ki, PKCε; cited from earlier work
[2] = target: T1, native (untagged) murine PKCθ (Mus musculus, UniProt Q02111); assay: FPCBA competition with probe 1, native PKCθ in HEK293 cells; type: binding; design: expressed in transfected cells; host or cells: HEK293 (ATCC CRL-1573), transient transfection with pIRES-mVenus carrying the PKC gene; conditions: read-out: Cellular Ki for native PKCθ (95% confidence interval); probe 1 400 nM, BIM1 2 μM, 2 h at 37° C.
T1 sequence (Q02111 whole entry): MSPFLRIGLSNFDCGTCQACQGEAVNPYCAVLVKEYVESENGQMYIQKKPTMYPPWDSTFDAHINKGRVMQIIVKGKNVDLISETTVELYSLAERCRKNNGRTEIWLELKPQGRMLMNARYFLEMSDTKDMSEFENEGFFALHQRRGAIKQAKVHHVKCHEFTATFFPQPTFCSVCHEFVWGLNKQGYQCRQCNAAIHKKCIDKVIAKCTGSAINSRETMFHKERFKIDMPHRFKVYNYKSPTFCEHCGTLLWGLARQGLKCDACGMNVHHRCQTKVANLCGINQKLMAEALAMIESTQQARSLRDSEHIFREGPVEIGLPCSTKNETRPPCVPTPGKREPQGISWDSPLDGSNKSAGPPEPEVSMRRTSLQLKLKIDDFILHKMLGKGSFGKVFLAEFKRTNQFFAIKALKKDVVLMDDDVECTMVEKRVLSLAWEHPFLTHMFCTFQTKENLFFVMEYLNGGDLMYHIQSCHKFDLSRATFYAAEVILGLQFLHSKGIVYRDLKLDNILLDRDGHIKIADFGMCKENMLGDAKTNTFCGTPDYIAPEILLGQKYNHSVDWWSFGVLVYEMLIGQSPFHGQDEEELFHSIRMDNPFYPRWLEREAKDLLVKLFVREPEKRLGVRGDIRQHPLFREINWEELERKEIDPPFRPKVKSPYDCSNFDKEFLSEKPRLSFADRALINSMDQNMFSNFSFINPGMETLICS

[3] = target: native (untagged) murine PKCγ (Mus musculus, UniProt P63318); assay: FPCBA competition with probe 1, native PKCγ in HEK293 cells; type: binding; design: For coexpression of full-length unmodified PKC proteins with mVenus as an independent marker; expressed in transfected cells; host or cells: HEK293 (transient, pIRES-mVenus); conditions: read-out: Cellular Ki for native PKCγ (95% confidence interval); probe 1 400 nM, BIM1 2 μM, 2 h at 37° C.
[4] = target: T2, native (untagged) murine PKCβI (Mus musculus, UniProt P68404); assay: FPCBA saturation binding of probe 1, native PKCβI (IRES-mVenus) in HEK293 cells
T2 construct: For coexpression of full-length unmodified PKC proteins with mVenus as an independent marker; expressed in transfected cells; host or cells: HEK293 (transient, pIRES-mVenus)
T2 sequence (P68404 2-673 isoform P68404-2): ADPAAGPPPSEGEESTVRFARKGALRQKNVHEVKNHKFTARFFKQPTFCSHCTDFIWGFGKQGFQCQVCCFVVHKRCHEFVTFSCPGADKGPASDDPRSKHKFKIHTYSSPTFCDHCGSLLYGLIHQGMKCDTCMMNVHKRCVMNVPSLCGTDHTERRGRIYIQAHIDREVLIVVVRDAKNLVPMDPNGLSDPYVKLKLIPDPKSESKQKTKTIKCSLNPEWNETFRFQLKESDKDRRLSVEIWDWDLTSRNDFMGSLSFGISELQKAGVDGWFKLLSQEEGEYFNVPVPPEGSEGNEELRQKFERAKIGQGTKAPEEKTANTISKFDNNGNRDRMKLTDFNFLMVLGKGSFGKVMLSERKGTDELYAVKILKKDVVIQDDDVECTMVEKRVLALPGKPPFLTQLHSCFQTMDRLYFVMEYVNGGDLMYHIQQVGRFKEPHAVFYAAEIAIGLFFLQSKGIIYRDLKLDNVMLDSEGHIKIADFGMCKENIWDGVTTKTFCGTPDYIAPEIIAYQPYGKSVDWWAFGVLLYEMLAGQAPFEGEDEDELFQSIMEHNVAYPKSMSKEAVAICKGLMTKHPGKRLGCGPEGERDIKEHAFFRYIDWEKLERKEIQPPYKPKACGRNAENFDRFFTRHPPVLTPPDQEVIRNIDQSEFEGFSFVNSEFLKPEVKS
From the text: To measure the binding of 1 and 2 to PKCβI in cells, we used flow cytometry to analyze the blue fluorescence of transfected and non-transfected cells as a function of probe concentration at equilibrium (FIGS. 37A-37F). In these assays, we directly compared the PKCβI-mVenus fusion protein with native PKCβI expressed separately from mVenus. […] This low background signal facilitated saturation binding assays, where non-specific binding of probes to non-transfected cells was subtracted from total binding to highly transfected cells (P2 gate) to measure specific binding. […] We further compared cells treated with and without the orthosteric PKC catalytic inhibitor BIM1 to block the kinase activity of PKC and isolate the analysis of interactions of 1 and 2 with the C1 regulatory domains of PKCbI.

[5] = target: T3, PKCβI-mVenus (Mus musculus, UniProt P68404); assay: Confocal microscopy of translocation of PKCβI-mVenus in HEK293 cells; type: cell-based; conditions: 2 μM, 2 h
T3 construct: we generated expression vectors for eight full-length mouse isozymes; expressed in transfected cells; host or cells: HEK293 (ATCC CRL-1573), transient transfection with CMV-PKC betaI-mVenus-N1
T3 sequence (P68404 whole entry): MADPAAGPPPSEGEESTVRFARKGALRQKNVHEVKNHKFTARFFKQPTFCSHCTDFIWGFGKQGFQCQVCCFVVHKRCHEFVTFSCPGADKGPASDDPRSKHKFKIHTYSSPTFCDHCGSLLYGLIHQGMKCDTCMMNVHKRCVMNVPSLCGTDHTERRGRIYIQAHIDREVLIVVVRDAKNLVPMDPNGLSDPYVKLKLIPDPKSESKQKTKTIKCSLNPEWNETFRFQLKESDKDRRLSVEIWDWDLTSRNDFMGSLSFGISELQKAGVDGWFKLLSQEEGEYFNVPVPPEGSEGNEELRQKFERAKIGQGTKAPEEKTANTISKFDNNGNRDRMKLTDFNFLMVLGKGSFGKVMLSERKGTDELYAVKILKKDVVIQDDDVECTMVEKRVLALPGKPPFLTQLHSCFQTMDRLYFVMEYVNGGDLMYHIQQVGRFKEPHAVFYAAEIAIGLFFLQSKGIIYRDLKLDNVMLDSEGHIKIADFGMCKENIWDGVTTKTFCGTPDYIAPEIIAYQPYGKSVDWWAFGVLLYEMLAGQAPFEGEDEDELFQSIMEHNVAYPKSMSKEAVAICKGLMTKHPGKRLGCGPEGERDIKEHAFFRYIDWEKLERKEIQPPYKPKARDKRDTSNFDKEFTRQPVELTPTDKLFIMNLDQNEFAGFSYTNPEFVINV
Procedure: FIGS. 36A-36D provide confocal and DIC micrographs of living HEK293 cells transiently transfected to express PKCβI-mVenus. […] Scale bars=10 microns.
This IRES vector was derived from a previously reported^52 variant encoding the somewhat less fluorescent protein Venus.
Living cells cultured on an 8-well chamber glass slide (Ibidi μ-Slide, 300 μL, 100,000 cells/well) were imaged with an inverted Leica TCS SP8 confocal laser-scanning microscope (63× oil-immersion objective). Fluorescent probes were excited at 405 nm and mVenus was excited at 488 nm. Emitted photons were collected from 425-500 nm and 500-650 nm. For imaging, transiently transfected HEK293 cells in complete medium (10% FBS) were plated on the Ibidi μ-Slide for 16 h to promote adherence. Concentrated stock solutions of fluorescent probes in DMSO were serially diluted 500-fold in serum-free DMEM medium to afford 2× stock solutions (0.2% DMSO). Half of the cell culture medium (150 μL) was carefully removed by pipet and gently replaced with the 2× stock solution of the probe in serum-free medium (final [FBS]˜5%). Cells were treated with probes (2 μM) at 37° C. for 2 h before imaging by microscopy. Laser power and PMT gain settings were identical for all images and controls within a given experiment for accurate comparisons of cellular fluorescence.

[6] = target: native (untagged) murine PKCα (Mus musculus, UniProt P20444); assay: FPCBA saturation binding of probe 1, native PKCα (IRES-mVenus) in HEK293 cells
[7] = target: T1, native (untagged) murine PKCθ; assay: FPCBA saturation binding of probe 1, native PKCθ (IRES-mVenus) in HEK293 cells
[8] = target: murine PKCα-mVenus (Mus musculus, UniProt P20444); assay: FPCBA saturation binding of probe 1, HEK293 cells expressing PKCα-mVenus (Example 3)
[9] = target: murine PKCγ-mVenus (Mus musculus, UniProt P63318); assay: FPCBA saturation binding of probe 1, HEK293 cells expressing PKCγ-mVenus (Example 3)
[10] = target: murine PKCζ-mVenus (Mus musculus, UniProt Q02956); assay: FPCBA saturation binding of probe 1, HEK293 cells expressing PKCζ-mVenus (Example 3); conditions: BIM1 2 μM, 2 h at 37° C., 4% FBS
Sequence of murine PKCζ-mVenus (Q02956 whole entry): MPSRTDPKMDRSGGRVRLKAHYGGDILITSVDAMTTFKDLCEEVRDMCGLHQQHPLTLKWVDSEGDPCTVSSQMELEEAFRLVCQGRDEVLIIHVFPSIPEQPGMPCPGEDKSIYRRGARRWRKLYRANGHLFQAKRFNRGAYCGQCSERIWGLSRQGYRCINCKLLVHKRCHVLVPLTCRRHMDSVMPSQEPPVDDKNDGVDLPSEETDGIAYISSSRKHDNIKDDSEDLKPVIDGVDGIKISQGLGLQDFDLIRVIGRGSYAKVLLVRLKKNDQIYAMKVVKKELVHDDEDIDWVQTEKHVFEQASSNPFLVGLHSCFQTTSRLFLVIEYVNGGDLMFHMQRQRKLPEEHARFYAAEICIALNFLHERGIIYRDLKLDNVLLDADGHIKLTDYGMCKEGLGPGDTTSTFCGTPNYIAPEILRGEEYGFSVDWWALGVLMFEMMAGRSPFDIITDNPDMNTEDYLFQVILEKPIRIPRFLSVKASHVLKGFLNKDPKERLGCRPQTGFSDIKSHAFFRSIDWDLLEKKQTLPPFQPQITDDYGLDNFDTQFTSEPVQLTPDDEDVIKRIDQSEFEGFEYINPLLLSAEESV

Sequence of PKCε (Q02156 whole entry): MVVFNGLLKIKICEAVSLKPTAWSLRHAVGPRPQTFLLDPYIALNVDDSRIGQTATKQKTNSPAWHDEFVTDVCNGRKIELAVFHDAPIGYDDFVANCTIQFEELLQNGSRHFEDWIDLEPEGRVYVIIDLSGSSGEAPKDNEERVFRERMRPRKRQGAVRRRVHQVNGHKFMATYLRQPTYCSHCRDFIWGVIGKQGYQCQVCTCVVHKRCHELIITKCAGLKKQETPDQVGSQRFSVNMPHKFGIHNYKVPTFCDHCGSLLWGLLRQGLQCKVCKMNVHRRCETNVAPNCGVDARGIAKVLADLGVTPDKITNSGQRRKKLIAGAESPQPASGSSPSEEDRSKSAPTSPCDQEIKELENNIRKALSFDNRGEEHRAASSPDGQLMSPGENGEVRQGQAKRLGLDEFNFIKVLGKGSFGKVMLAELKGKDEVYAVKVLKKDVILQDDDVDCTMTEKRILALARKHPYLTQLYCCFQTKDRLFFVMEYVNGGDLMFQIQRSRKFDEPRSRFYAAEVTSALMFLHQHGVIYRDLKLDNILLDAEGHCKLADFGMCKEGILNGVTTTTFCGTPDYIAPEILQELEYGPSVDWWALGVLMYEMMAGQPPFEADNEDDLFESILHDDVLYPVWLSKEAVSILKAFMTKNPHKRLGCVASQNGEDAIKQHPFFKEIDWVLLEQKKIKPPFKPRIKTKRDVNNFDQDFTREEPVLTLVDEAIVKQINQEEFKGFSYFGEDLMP

Compound	Ki [1]	Ki [2]	Ki [3]	affinity of native untagged PKCβI relative to PKCβI-mVenus fusion [4]	Kd ([4]; IRES-mVenus, BIM1 2 μM, 2 h at 37° C., 4% FBS, read-out: Cellular Kd for probe, native PKCβI)	translocation of PKCβI-mVenus [5]	Kd [6]	Kd [7]	Kd [8]	Kd [9]	Cellular Kd for probe, PKCζ-mVenus [10]
CCC/C=C/C=C/C(=O)O[C@H]1/C(=C/C(=O)OC)C[C@H]2C[C@H]([C@@H](C)O)OC(=O)C[C@H](O)C[C@@H]3C[C@H](OC(C)=O)C(C)(C)[C@](O)(C[C@@H]4C/C(=C/C(=O)OC)C[C@H](/C=C/C(C)(C)[C@]1(O)O2)O4)O3 [bryostatin 1]	0.003 µM	0.008 µM	0.008 µM	–	–	–	–	–	–	–	–
CCCCCCN(CCCCCCCCCCCCNC(=O)c1cc2cc(F)c(O)c(F)c2oc1=O)C(=O)O[C@@]12[C@H](O)[C@@H](C)[C@@]3(O)[C@@H](C=C(CO)C[C@]4(O)C(=O)C(C)=C[C@@H]34)[C@@H]1C2(C)C [probe 1, (1aR,1bS,4aR,7aS,7bS,8R,9R,9aS)-4a,7b,9-trihydroxy-3-(hydroxymethyl)-1,1,6,8-tetramethyl-5-oxo-1,1a,1b,4,4a,5,7a,7b,8,9-decahydro-9aH-cyclopropa[3,4]benzo[1,2-e]azulen-9a-yl (12-(6,8-difluoro-7-hydroxy-2-oxo-2H-chromene-3-carboxamido)dodecyl)(hexyl)carbamate]	–	–	–	~2 fold	0.097 µM	translocated to cellular membranes	0.063 µM	1.05 ± 0.125 µM	0.314 ± 0.037 µM	0.391 ± 0.142 µM	No binding
